According to PMC11956004 (2025):
Starred links: 1 amine or outer side, 2 acyl side, 3 side chain; linkers in the order of their positions; H or OH if unused. Positions of bridges follow the written chain, without caps; N, C: chain ends. Non-standard residues stand in square brackets, D forms with d. Residues, ends and D or L forms follow the SMILES beside them. Chains are numbered I, II in the order given. Actinocin(9to1) = Cc1c2oc3c(C)ccc(C(=O)[*:1])c3nc-2c(C(=O)[*:2])c(N)c1=O; NMeV = CN[C@H](C(=O)O)C(C)C; Sar = CNCC(=O)O

Assays:
[1] = test system: AAGCAAACGAAA (DNA, duplex) AAGCAAACGAAA/TTTCGTTTGCTT; assay: CD titration; conditions: Mg2+ 5 mM, Na+ (50 mM sodium cacodylate); 50 mM sodium cacodylate pH 7.2; 20 μM duplex, drug 1-4 equivalents
[2] = test system: d(AGCCGT)2 (DNA, duplex) AGCCGT/ACGGCT; assay: X-ray crystallography (1.57 Å); conditions: Mn2+ 3 mM, Li+ 30 mM, 25 mM MES pH 6.5, 3% PEG400, 20 °C
[3] = test system: AAAGCAACGAAA (DNA, duplex) AAAGCAACGAAA/TTTCGTTGCTTT; assay: CD titration; conditions: Mg2+ 5 mM, Na+ (50 mM sodium cacodylate); 50 mM sodium cacodylate pH 7.2; 20 μM duplex, drug 1-4 equivalents
[4] = test system: AAAGCACGAAAA (DNA, duplex) AAAGCACGAAAA/TTTTCGTGCTTT; assay: CD titration; conditions: Mg2+ 5 mM, Na+ (50 mM sodium cacodylate); 50 mM sodium cacodylate pH 7.2; 20 μM duplex, drug 1-4 equivalents
[5] = test system: AAAAGCCGAAAA (DNA, duplex) AAAAGCCGAAAA/TTTTCGGCTTTT; assay: CD titration; conditions: Mg2+ 5 mM, Na+ (50 mM sodium cacodylate); 50 mM sodium cacodylate pH 7.2; 20 μM duplex, drug 1-4 equivalents
[6] = test system: AAAAGCCGAAAA (DNA, duplex) AAAAGCCGAAAA/TTTTCGGCTTTT; assay: fluorescence quenching of Dox, Hill fit; conditions: Mg2+ 5 μM (so in the source); 50 μM Na cacodylate pH 7.3 (so in the source); 1 μM Dox alone, apparent; Kd decreases when ActD added

Row | SMILES | binding [1] | binding ([2]; ternary complex with doxorubicin, intercalated at G2pC3) | binding [3] | binding [4] | binding [5] | binding ([2]; ternary complex with actinomycin D, intercalated at C4pG5) | Kd [6] [µM]
1 | Cc1c2oc3c(C)ccc(C(=O)N[C@@H]4C(=O)N[C@H](C(C)C)C(=O)N5CCC[C@H]5C(=O)N(C)CC(=O)N(C)[C@@H](C(C)C)C(=O)O[C@@H]4C)c3nc-2c(C(=O)N[C@@H]2C(=O)N[C@H](C(C)C)C(=O)N3CCC[C@H]3C(=O)N(C)CC(=O)N(C)[C@@H](C(C)C)C(=O)O[C@@H]2C)c(N)c1=O (I: T[dV]P[Sar][NMeV] / II: T[dV]P[Sar][NMeV]; ester I:1-I:C, II:1-II:C; linker I:N-II:N via Actinocin(9to1)) | yes | yes | yes | yes | yes |  | 
2 | COc1cccc2c1C(=O)c1c(O)c3c(c(O)c1C2=O)C[C@@](O)(C(=O)CO)C[C@@H]3O[C@H]1C[C@H](N)[C@H](O)[C@H](C)O1 | yes |  | yes | yes | yes | yes | 2.13
